Reference: ChEMBL document CHEMBL1151029, “Structure-activity relationships of sulfur-containing triazole antifungals” (1995)
Converted amounts (≈) assume the structure as drawn.

Assays:
Type in all cases: functional
Aspergillus fumigatus = experiment: In vitro antifungal activity against Aspergillus fumigatus MTU6001
Candida albicans = experiment: In vitro antifungal activity against Candida albicans KB-8
[1] = Mean survival days evaluated in vivo for prophylactic efficiency against murine systemic candidiasis at a dose of 10 mg/kg
[2] = Mean survival days evaluated in vivo for prophylactic efficiency against murine systemic aspergillosis at a dose of 50 mg/kg
Mus musculus = experiment: Mean survival days evaluated in vivo for prophylactic efficiency against murine systemic aspergillosis at a dose of 100 mg/kg

Row | SMILES | MIC (Aspergillus fumigatus) | MIC (Candida albicans) | Mean survival [1] | Mean survival [2] | Mean survival (Mus musculus)
1 | C[C@H]([C@](O)(Cn1cncn1)c1ccc(F)cc1F)S(=O)(=O)CCCCCCO | 100 µg/mL (≈ 240 µM) | 0.39 µg/mL (≈ 0.934 µM) | 1.4 days | 3.1 days | –
2 | CCCCCCCS[C@H](C)[C@](O)(Cn1cncn1)c1ccc(F)cc1F | ≤ 0.2 µg/mL | ≤ 0.013 µg/mL | 10 days | 2.2 days | –
3 | C[C@H]([C@](O)(Cn1cncn1)c1ccc(F)cc1F)S(=O)(=O)CCCCCCCO | 25 µg/mL (≈ 57.9 µM) | 0.39 µg/mL (≈ 0.904 µM) | 1 days | 1.2 days | –
4 | CCCCCCCCS(=O)(=O)[C@H](C)[C@](O)(Cn1cncn1)c1ccc(F)cc1F | 3.13 µg/mL (≈ 7.29 µM) | ≤ 0.013 µg/mL | 1.3 days | 1.6 days | –
5 | CCCCCCCCCCS[C@H](C)[C@](O)(Cn1cncn1)c1ccc(F)cc1F | 0.78 µg/mL (≈ 1.83 µM) | ≤ 0.013 µg/mL | 9.1 days | 8 days | –
6 | CCCS(=O)(=O)[C@H](C)[C@](O)(Cn1cncn1)c1ccc(F)cc1F | 6.25 µg/mL (≈ 17.4 µM) | 0.2 µg/mL (≈ 0.556 µM) | 8.3 days | 10 days | –
7 | CCCS[C@H](C)[C@](O)(Cn1cncn1)c1ccc(F)cc1F | 12.5 µg/mL (≈ 38.2 µM) | 0.1 µg/mL (≈ 0.305 µM) | 4.4 days | 1 days | –
8 | CCCCCCCCCS(=O)(=O)[C@H](C)[C@](O)(Cn1cncn1)c1ccc(F)cc1F | 0.78 µg/mL (≈ 1.76 µM) | ≤ 0.013 µg/mL | 0.6 days | 1 days | –
9 | CCCCCCCCCS[C@H](C)[C@](O)(Cn1cncn1)c1ccc(F)cc1F | 3.13 µg/mL (≈ 7.61 µM) | ≤ 0.013 µg/mL | 5 days | 1.8 days | –
10 | CCCCCCCCS[C@H](C)[C@](O)(Cn1cncn1)c1ccc(F)cc1F | 0.39 µg/mL (≈ 0.981 µM) | ≤ 0.013 µg/mL | 8.6 days | 7.2 days | –
11 | C[C@@H](SCCCCCCO)[C@](O)(Cn1cncn1)c1ccc(F)cc1F | 0.78 µg/mL (≈ 2.02 µM) | ≤ 0.013 µg/mL | 2.8 days | 2.8 days | –
12 | C[C@@H](SCCCCCO)[C@](O)(Cn1cncn1)c1ccc(F)cc1F | 0.78 µg/mL (≈ 2.1 µM) | 0.025 µg/mL (≈ 0.0673 µM) | 9.8 days | 10 days | –
13 | CCCCCCS[C@H](C)[C@](O)(Cn1cncn1)c1ccc(F)cc1F | 0.39 µg/mL (≈ 1.06 µM) | ≤ 0.013 µg/mL | 9.2 days | 6.8 days | –
14 | C[C@H]([C@](O)(Cn1cncn1)c1ccc(F)cc1F)S(=O)(=O)CCCCCCCCO | 6.25 µg/mL (≈ 14 µM) | 0.1 µg/mL (≈ 0.224 µM) | 0.5 days | 3 days | –
15 | CCS[C@H](C)[C@](O)(Cn1cncn1)c1ccc(F)cc1F | 1.56 µg/mL (≈ 4.98 µM) | 0.025 µg/mL (≈ 0.0798 µM) | 10 days | 9.8 days | –
16 | C[C@@H](SCCCCO)[C@](O)(Cn1cncn1)c1ccc(F)cc1F | 6.25 µg/mL (≈ 17.5 µM) | 0.2 µg/mL (≈ 0.56 µM) | 2.5 days | 3.2 days | –
17 | C[C@@H](SCCCCCCCO)[C@](O)(Cn1cncn1)c1ccc(F)cc1F | 0.78 µg/mL (≈ 1.95 µM) | ≤ 0.013 µg/mL | 10 days | 9.7 days | –
18 | CCCCCS(=O)(=O)[C@H](C)[C@](O)(Cn1cncn1)c1ccc(F)cc1F | 25 µg/mL (≈ 64.5 µM) | 0.2 µg/mL (≈ 0.516 µM) | 0.4 days | 3.6 days | –
19 | CCCCCCCCCCCS[C@H](C)[C@](O)(Cn1cncn1)c1ccc(F)cc1F | 25 µg/mL (≈ 56.9 µM) | ≤ 0.013 µg/mL | 5.8 days | 1.6 days | –
20 | CCCCCCCS(=O)(=O)[C@H](C)[C@](O)(Cn1cncn1)c1ccc(F)cc1F | 6.25 µg/mL (≈ 15 µM) | ≤ 0.013 µg/mL | 0.9 days | 1.1 days | –
21 | CCCCCCCCCCCS(=O)(=O)[C@H](C)[C@](O)(Cn1cncn1)c1ccc(F)cc1F | 3.13 µg/mL (≈ 6.64 µM) | ≤ 0.013 µg/mL | 1.1 days | 1.6 days | –
22 | CCCCCS[C@H](C)[C@](O)(Cn1cncn1)c1ccc(F)cc1F | 0.78 µg/mL (≈ 2.19 µM) | ≤ 0.013 µg/mL | 9.9 days | 2.5 days | –
23 | CCCCCCS(=O)(=O)[C@H](C)[C@](O)(Cn1cncn1)c1ccc(F)cc1F | 12.5 µg/mL (≈ 31.1 µM) | 0.1 µg/mL (≈ 0.249 µM) | 2.6 days | 1.6 days | –
24 | CCCCS[C@H](C)[C@](O)(Cn1cncn1)c1ccc(F)cc1F | 0.78 µg/mL (≈ 2.28 µM) | ≤ 0.013 µg/mL | 9.9 days | 2.5 days | –
25 | C[C@@H](SCCCCCCCCO)[C@](O)(Cn1cncn1)c1ccc(F)cc1F | ≤ 0.2 µg/mL | ≤ 0.013 µg/mL | 4.3 days | 3.5 days | –
26 | CCCCS(=O)(=O)[C@H](C)[C@](O)(Cn1cncn1)c1ccc(F)cc1F | 12.5 µg/mL (≈ 33.5 µM) | 0.2 µg/mL (≈ 0.536 µM) | 7.6 days | 4.1 days | –
27 | CCCCCCCCCCS(=O)(=O)[C@H](C)[C@](O)(Cn1cncn1)c1ccc(F)cc1F | < 0.2 µg/mL | ≤ 0.013 µg/mL | 3.9 days | 1.5 days | –
28 | OC(Cn1cncn1)(Cn1cncn1)c1ccc(F)cc1F [FLUCONAZOLE] | 400 µg/mL (≈ 1310 µM) | 0.78 µg/mL (≈ 2.55 µM) | 10 days | – | 2.8 days
29 | C[C@H]([C@](O)(Cn1cncn1)c1ccc(F)cc1F)S(C)(=O)=O [GENACONAZOLE] | 12.5 µg/mL (≈ 37.7 µM) | 0.2 µg/mL (≈ 0.604 µM) | 10 days | 10 days | –
